For 20 compounds, minimal effective concentration and minimal effective dose results are on record in patent EP0215300A2, “Use of diazaphosphorines for combating endoparasites” (BAYER AG, priority 1985, dated 1987).

Test [1] deals with Caenorhabditis elegans. The test can be described thus: In vitro nematode test (inhibition of reproduction). The format is cell-based. Particulars: 168 h; concentration at which reproduction is prevented; 7 days at 22°C; E.coli suspension in M9 buffer; read-out: Minimale effektive Dosis. The procedure:
10-^4 g Wirkstoff werden in 1 ml Wasser oder 0,1 ml Dimethylsulfoxid (DMSO) gelöst. Diese Lösung wurde auf eine Replica-Platte gegeben. Dazu wurden 2 ml einer E.coli-Suspension gegeben, zu der man 10-20 weibliche Tiere oder Larven von Caenorhabditis elegans in 0,5 ml sterile M9 Pufferlösung gegeben hat. Die E.coli-Suspension wurde hergestellt indem man 300 ml einer Ubernachtkultur eines Uracil-bedürftigen E.coli-Stammes mit 1,8 1 steriler M9 Pufferlösung versetzte.
Der Versuchsansatz wurde 7 Tage bei 22°C inkubiert und danach ausgewertet. Es wurde bewertet inwieweit der Wirkstoff die Vermehrung beeinträchtigt und die Konzentration angegeben bei der die Vermehrung verhindert wird. Dabei wurden folgende Ergebnisse erhalten: • In vitro Nematodentest

The subject of test [2] is Strongyloides ratti. The test can be described thus: In vivo nematode test in experimentally infected rats. Conditions: rats (Ratten), oral by gavage on three consecutive days from day 7 after infection, killed day 13, at least 95 % of parasites killed, read-out: minimale effektive Dosis. The text has this: Experimentell mit Strongyloides ratti infizierte Ratten werden 7 Tage nach der Infektion an drei aufeinanderfolgenden Tagen oral mittels Schlundsonde behandelt. Die Tiere werden 13 Tage nach der Infektion getötet und die Zahl der Parasiten bestimmt. Es wird die Wirkstoffkonzentration angegeben, bei der mindestens 95 % der Parasiten abgetötet wurden (minimale effektive Dosis): […]

Test [3] deals with Heterakis spumora. The test can be described thus: In vivo nematode test in experimentally infected mice. Particulars: Mus musculus; mice (Mäuse); oral by gavage on four consecutive days from day 32 after infection; killed day 39; at least 95 % of parasites killed; read-out: minimale effektive Dosis. The text has this: Experimentell mit Heterakis spumora infizierte Mäuse werden 32 Tage nach der Infektion an vier aufeinanderfolgenden Tagen oral mittels Schlundsonde behandelt. Die Tiere werden 39 Tage nach der Infektion getötet und die Zahl der Parasiten bestimmt. Es wird die Wirkstoffkonzentration angegeben bei der mindestens 95 % der Parasiten abgetötet wurden (minimale effektive Dosis): […]

Test [4] concerns Hymenolepis nana. Described as above. Conditions: Rodentolepis nana; mice (Mäuse); oral by gavage on four consecutive days from day 10 after infection; killed day 17; at least 95 % of parasites killed; read-out: minimale effektive Dosis. The source says:
Experimeltell mit Hymenolepis nana infizierte Mäuse werden 10 Tage nach der Infektion an vier aufeinanderfolgenden Tagen oral mittels Schlundsonde behandelt. Die Tiere werden 17 Tage nach Infektion getötet und die Zahl der Parasiten bestimmt. Es wird die Wirkstoffkonzentration angegeben, bei der mindestens 95 % der Parasiten abgetötet wurden (minimale effektive Dosis): […]

In the case of `CN1C(=O)C(C(=O)Nc2cccc(C(F)(F)F)c2)C(=O)N(C)P1(=O)Oc1ccc(Cl)cc1` (stereo not shown) [Beispiel 1], in test [1], the minimal effective concentration was determined as 10 µg/mL.

Regarding `CC(C)N1C(=O)C(C(=O)Nc2cccc(Cl)c2)C(=O)N(C(C)C)P1(=O)Oc1cccc(Cl)c1` (stereo not shown) [Beispiel 2], the minimal effective concentration in test [1] worked out at 100 µg/mL.

For the compound `CC(C)N1C(=O)C(C(=O)Nc2cccc(C(F)(F)F)c2)C(=O)N(C(C)C)P1(=O)Oc1cccc(Cl)c1` (stereo not shown) [Beispiel 3], in test [1], the minimal effective concentration worked out at 100 µg/mL.

Take `CN1C(=O)C(C(=O)Nc2ccc(C(F)(F)F)cc2)C(=O)N(C)P1(=O)Oc1ccc(Cl)cc1` (stereo not shown) [Beispiel 6]: in test [1], the minimal effective concentration is 1 µg/mL.

As to `CN1C(=O)C(C(=O)Nc2ccc(C(F)(F)F)cc2)C(=O)N(C)P1(=O)Oc1ccccc1` (stereo not shown) [Beispiel 8], the minimal effective concentration in test [1] worked out at 10 µg/mL. For the same compound, in test [2], the minimal effective dose was determined as 25 mg/kg.

As for `CN1C(=O)C(C(=O)Nc2ccc(Cl)cc2)C(=O)N(C)P1(=O)Oc1ccc(Cl)cc1` (stereo not shown) [Beispiel 10], in test [1], the minimal effective concentration stood at 1 µg/mL.

For the compound `CN1C(=O)C(C(=O)Nc2cccc(Cl)c2)C(=O)N(C)P1(=O)Oc1cccc(Cl)c1` (stereo not shown) [Beispiel 11], in test [1], the minimal effective concentration came to 1 µg/mL. Moreover, the minimal effective dose in test [2] is 10 mg/kg.

As to `CN1C(=O)C(C(=O)Nc2cccc(Cl)c2)C(=O)N(C)P1(=O)Oc1ccc(Cl)cc1` (stereo not shown) [Beispiel 12], the minimal effective concentration in test [1] is 100 µg/mL.

On to `O=C(Nc1ccc(Cl)c(Cl)c1)C1C(=O)N(c2ccccc2)P(=O)(Oc2ccc(Cl)cc2)N(c2ccccc2)C1=O` (stereo not shown) [Beispiel 13], for which the minimal effective concentration in test [1] was 10 µg/mL.

Turning to `O=C(Nc1ccc(Cl)c(Cl)c1)C1C(=O)N(c2ccccc2)P(=O)(Oc2ccccc2)N(c2ccccc2)C1=O` (stereo not shown) [Beispiel 14], the minimal effective concentration in test [1] was found to be 100 µg/mL.

Regarding `CC(C)N1C(=O)C(C(=O)Nc2ccc(C(F)(F)F)cc2)C(=O)N(C)P1(=O)Oc1cccc(Cl)c1` (stereo not shown) [Beispiel 17], the minimal effective concentration in test [1] was found to be 10 µg/mL.

Regarding `CC(C)N1C(=O)C(C(=O)Nc2cccc(Cl)c2)C(=O)N(C)P1(=O)Oc1cccc(Cl)c1` (stereo not shown) [Beispiel 18], in test [1], the minimal effective concentration came out at 10 µg/mL.

With `CCN1C(=O)C(C(=O)Nc2cccc(C(F)(F)F)c2)C(=O)N(C)P1(=O)Oc1cccc(Cl)c1` (stereo not shown) [Beispiel 20], the minimal effective concentration in test [1] worked out at 10 µg/mL. Also, the minimal effective dose in test [2] is 250 mg/kg.

`CC(C)N1C(=O)C(C(=O)Nc2cccc(C(F)(F)F)c2)C(=O)N(C)P1(=O)Oc1cccc(Cl)c1` (stereo not shown) [Beispiel 22]: the minimal effective concentration in test [1] came out at 10 µg/mL. The minimal effective dose in test [3] and in test [4] was 250 mg/kg throughout.

On to `Cc1cccc(OP2(=O)N(C)C(=O)C(C(=O)Nc3cccc(C(F)(F)F)c3)C(=O)N2C(C)C)c1` (stereo not shown) [Beispiel 27], for which the minimal effective concentration in test [1] was 10 µg/mL.

For the compound `Cc1cccc(OP2(=O)N(C)C(=O)C(C(=O)Nc3cccc(Cl)c3)C(=O)N2C(C)C)c1` (stereo not shown) [Beispiel 28], in test [1], the minimal effective concentration amounted to 100 µg/mL.

Take `Cc1cccc(OP2(=O)NC(=O)C(C(=O)Nc3cccc(C(F)(F)F)c3)C(=O)N2C)c1` (stereo not shown) [Beispiel 34]: in test [1], the minimal effective concentration was 100 µg/mL.

For `Cc1cccc(OP2(=O)N(C)C(=O)C(C(=O)Nc3ccc(Cl)c(Cl)c3)C(=O)N2C(C)C)c1` (stereo not shown) [Beispiel 35], in test [1], the minimal effective concentration came out at 10 µg/mL.

On to `CN1C(=O)C(C(=O)Nc2cccc(C(F)(F)F)c2)C(=O)N(C)P1(=O)Oc1cccc(Cl)c1` (stereo not shown) [Beispiel 36], for which, in test [1], the minimal effective concentration was found to be 10 µg/mL.

For the compound `CN1C(=O)C(C(=O)Nc2ccc(Cl)c(Cl)c2)C(=O)N(c2ccccc2)P1(=O)Oc1ccc(Cl)cc1` (stereo not shown) [Beispiel 37], in test [1], the minimal effective concentration was determined as 10 µg/mL.
